The nature of series [1]: Release of ACC from Ac-Linker-ACC conjugates in mouse serum (serum stability). Format: in vitro ADME. The note with it: role: substrate; 50% mouse serum, 8 h. The protocol:
(§1) With the hit candidate in-hand, scarless cleavage was assessed with the turn-on fluorescent probe 7-amino-4-carbamoylmethylcoumarin (ACC), which only fluoresces when the ACC fluorophore is cleaved without an amino acid scar. To discover a scarless linker for LEHELGN (SEQ ID NO: 7), the following ACC conjugates (FIG. 9) were synthesized and cleavage rates were compared in 50% mouse serum and A. baumannii periplasmic extracts (FIGS. 10 and 11): Ac-LEHELGN-ACC (SEQ ID NO: 8), Ac-LEHELG-ACC (SEQ ID NO: 9), Ac-LEHEL-ACC (SEQ ID NO: 10), Ac-LEHE-ACC (SEQ ID NO: 11), Ac-LEH-ACC (SEQ ID NO: 12), Ac-LE-ACC, and Ac-L-ACC (note: Ac=acetyl).
To determine how each amino acid contributed to the selectivity of linker LEHELG (SEQ ID NO: 1), an ala scan was conducted. […] The cleavage rates of ala-substituted variants (P1-P6) were determined in mouse serum and in the periplasmic extracts from six strains of A. baumannii (FIG. 12).
Periplasmic extracts and mouse serum were not diluted prior to use in fluorescence assays and were allowed to undergo only one freeze-thaw cycle prior to use. […] The plate was sealed with a transparent polyolefin silicone film (Thermofisher™ Nuc™ Sealing Tape, 12-565-513) and placed in a plate reader at 37 °C with shaking at 225 rpm for 8 hours. […]

Series [2] concerns A. baumannii periplasmic extract. The series can be described thus: Release of ACC from Ac-Linker-ACC conjugates in A. baumannii periplasmic extract. Format: biochemical. Particulars: role: substrate, 8 h. The protocol: as §1
To determine how each amino acid contributed to the selectivity of linker LEHELG (SEQ ID NO: 1), an ala scan was conducted. Each position of the LEHELG (SEQ ID NO: 1) linker was substituted with a single alanine, the simplest amino acid containing a stereocenter, to create six variants. The P1 position is the amino acid directly adjacent to the cleavage site, which is conjugated to the ACC turn-on fluorophore. The cleavage rates of ala-substituted variants (P1-P6) were determined in mouse serum and in the periplasmic extracts from six strains of A. baumannii (FIG. 12). […]
Periplasmic extracts and mouse serum were not diluted prior to use in fluorescence assays and were allowed to undergo only one freeze-thaw cycle prior to use. […]

Series [3] has as its system HL60 cells. The series can be described thus: Cell viability assay (MTT) in HL60 cells. Format: cell-based. Particulars: Homo sapiens, HL-60, 24 h, 0.07-10 μM, FIG. 14. The protocol:
Cell Culture: HL-60 cells were cultured at 37 °C in a 5% CO2 atmosphere. The cells were grown in Iscove's Modified Dulbecco's Medium, supplemented with 20% fetal bovine serum (FBS) and 0.1% penicillin-streptomycin. Media was replaced every other day until cells reached the desired confluency.
Viability Assay: HL-60 cells (4×10^3) were seeded in a 96-well plate in cell culture media (100 μL) for 24 hours at the atmosphere stated above (5% CO2). After incubation, the cells were treated with 10 μL of vehicle or drug (0.07-10 μM, n=6) for 24 hours at 37 °C. Cell viability was assessed using MTT. MTT media (30 μL, 5 mg/mL) was added to each well for 2 hours and plate was centrifuged at 500×g for 5 minutes after, followed by media aspiration. The formazan crystals left were solubilized in DMSO and absorbance (540 nm) was measured using a microplate reader (SpectraMax M5). Data obtained was normalized to the vehicle to generate final values. The graph plotted in FIG. 14 is depicted as the mean±SEM vs. compound concentration.

The subject of series [4] is S. enterica 14028s. Put plainly: MIC, broth microdilution. Format: cell-based. Particulars: Salmonella enterica, MH-II broth, 16 h, 37 °C, dipyridyl 200 μM for siderophore conjugates. From the text:
(§2) For full conjugate synthesis, the HMM siderophore (see FIG. 3) was chosen due to its ability to actively transport antibiotics into diverse bacteria. Solithromycin was chosen as a warhead to determine the quality of the cleavable linker in bacteria and to provide insight into the ability of the conjugate to actively transport through membranes. Solithromycin is a broad-spectrum antibiotic (G^+ and […]), and conjugates with this warhead require cleavage for activity, except in cases where the conjugate is actively transported to the cytoplasm, where the intact conjugate engages the target ribosome. When the minimum inhibitory concentration (MIC, minimum amount of drug to inhibit growth) of solithromycin equals the MIC of its cleavable L-linker conjugate, it indicates quantitative drug release, assuming the non-cleavable D-linker conjugate is not active (Table 1). D-linkers are not cleaved by most proteases.
(§3) Broth and Agar Preparation: Mueller-Hinton II (MH-II, cation-adjusted) broth was prepared from solid MH-II (22 g) and MilliQ H2O (1 L), which was autoclaved in a presterilized 1-L glass bottle. The autoclaved MH-II media contained dipyridyl (DP, 200 μM) for MIC assays involving siderophore conjugates. MH-II agar plates were prepared from autoclaved MH-II (22 g), Bacto agar (17 g), and MilliQ water (1 L). The bacterial strains were obtained from glycerol stocks.
(§4) Bacteria Culture Preparation: Bacteria were streaked on MH-II agar plates from glycerol stocks. The streaked plates were placed in an incubator at 37 °C without shaking for 18-hours. A sterilized pipet tip was gently touched on the surface of a single colony and added to autoclaved MH-II broth (5 mL) in a sterilized 14-mL culture tube. The cultures were incubated for 18 hours at 37 °C with shaking at 215 rpm. The cultures were diluted 200-fold into autoclaved MH-II broth (4 mL) and incubated at 37 °C with shaking at 215 rpm for 3-5 hours, or until an OD 600 of 0.5 was achieved. An aliquot of the culture (1 mL) was transferred to a sterilized culture tube and diluted with filter-sterilized PBS (~7 mL) until an OD600 of 0.13-0.15 was achieved. An aliquot ([…]) of the cultures was then transferred into MH-II media (15-mL) to achieve a concentration of 1×10^5 cells/mL. The diluted cultures (90 μL/well) were then added to substrate (10 μL at the following concentrations: 640 μg/mL, 320 μg/mL, 160 μg/mL, 80 μg/mL, 40 μg/mL, 20 μg/mL, 10 μg/mL, and 0 μg/mL in sterilized 96-well plates to achieve a final substrate concentration of 64 μg/mL, 32 μg/mL, 16 μg/mL, 8 μg/mL, 4 μg/mL, 2 μg/mL, 1 μg/mL, and 0 μg/mL. The 96-well plates were then sealed with sterilized gas-permeable covers. The plates were incubated at 37 °C with shaking at 215 rpm for 16 hours. Each well condition was prepared in triplicate, and each MIC assay was repeated on a different day. The turbidity of each well was examined visually and the MIC was counted as the lowest concentration that lacked turbidity.

Series [5] relates to K. pneumoniae KPPR1. Put plainly: MIC, broth microdilution. The format is cell-based. Particulars: Klebsiella pneumoniae, MH-II broth, 16 h, 37 °C, dipyridyl 200 μM for siderophore conjugates.
From the text: as §2, §3, §4

Series [6] deals with E. coli K12 MG1655. The series can be described thus: MIC, broth microdilution. The note with it: Escherichia coli, MH-II broth, 16 h, 37 °C, dipyridyl 200 μM for siderophore conjugates. Format: cell-based.
From the text: as §2, §3, §4

The subject of series [7] is E. aerogenes ATCC 13048. Put plainly: MIC, broth microdilution. Format: cell-based. Particulars: Klebsiella aerogenes, ATCC13048, MH-II broth, 16 h, 37 °C, dipyridyl 200 μM for siderophore conjugates.
From the text: as §2, §3, §4

Series [8] deals with K. pneumoniae MGH 78578. The series can be described thus: MIC, broth microdilution. Particulars: Klebsiella pneumoniae, MGH78578, MH-II broth, 16 h, 37 °C, dipyridyl 200 μM for siderophore conjugates. Format: cell-based.
From the text: as §2, §3, §4

The subject of series [9] is A baumannii WC487. Put plainly: MIC, broth microdilution. The format is cell-based. Particulars: Acinetobacter baumannii, MH-II broth, 16 h, 37 °C, dipyridyl 200 μM for siderophore conjugates.
From the text: as §2, §3, §4

Series [10] concerns S. typhi ATCC 700931. Put plainly: MIC, broth microdilution. The note with it: Salmonella enterica, MH-II broth, 16 h, 37 °C, dipyridyl 200 μM for siderophore conjugates. Format: cell-based.
From the text: as §2, §3, §4

The test system of series [11] is A. baumannii 5075. The series can be described thus: MIC, broth microdilution. The format is cell-based. The note with it: Acinetobacter baumannii, MH-II broth, 16 h, 37 °C, dipyridyl 200 μM for siderophore conjugates.
From the text: as §2, §3, §4

Series [12] deals with E. coli DCO. The series can be described thus: MIC, broth microdilution. The format is cell-based. The note with it: Escherichia coli, MH-II broth, 16 h, 37 °C, dipyridyl 200 μM for siderophore conjugates.
From the text: as §2, §3, §4

The structures appear in SMILES notation. Converted amounts (≈) assume the structure as drawn. “Also recorded” adds a separate entry of the source. Peptide text beside a SMILES is read from it. * marks the point of attachment. ACC = NC(=O)Cc1cc(=O)oc2cc(N*)ccc12 Some results are limits rather than exact numbers.

With `CC(=O)N[C@@H](CC(C)C)C(=O)N[C@@H](CCC(=O)O)C(=O)N[C@@H](C)C(=O)N[C@@H](CCC(=O)O)C(=O)N[C@@H](CC(C)C)C(=O)NCC(=O)Nc1ccc2c(CC(N)=O)cc(=O)oc2c1` [Ac-LEAELG-ACC, Ac-LEAELG(SEQ ID NO: 3)-ACC] (Ac-LEAELG-{ACC}), in [1], the “stability in serum / release of ACC in serum (in words)” value was “did not show a significant loss of serum stability relative to the parent peptide”. Moreover, the “cleavage rate / release of ACC in periplasmic extract (in words)” value in series [2] is “dramatically enhanced the cleavage rates in periplasmic extracts”.
For `CC(=O)N[C@@H](CC(C)C)C(=O)N[C@@H](CCC(=O)O)C(=O)N[C@@H](Cc1c[nH]cn1)C(=O)N[C@@H](CCC(=O)O)C(=O)N[C@@H](CC(C)C)C(=O)NCC(=O)Nc1ccc2c(CC(N)=O)cc(=O)oc2c1` [Ac-LEHELG-ACC, Ac-LEHELG(SEQ ID NO: 63)-ACC] (Ac-LEHELG-{ACC}), in that order: “Minimal release of ACC; also recorded: highest stability in mouse serum compared to all ala-substituted variants” and “cleaving rapidly”.
Regarding `CO[C@@]12[C@H](COC(N)=O)C3=C(C(=O)C(C)=C(N)C3=O)N1C[C@@H]1N[C@@H]12` [mitomycin C, reference compound], the concentration for a half-maximal effect (EC50) in series [3] was 1000 nM.
Take `CC[C@H]1OC(=O)[C@@](C)(F)C(=O)[C@H](C)[C@@H](O[C@@H]2O[C@H](C)C[C@H](N(C)C)[C@H]2O)[C@](C)(OC)C[C@@H](C)C(=O)[C@H](C)[C@H]2N(CCCCn3cc(-c4cccc(N)c4)nn3)C(=O)O[C@]12C` [solithromycin]: the minimum inhibitory concentration (MIC) in series [4] was 8 µM (≈ 6.76 µg/mL); in series [5] it was 4 µM (≈ 3.38 µg/mL); in series [6], under 1 µM; in [7] it was 8 µM (≈ 6.76 µg/mL); in [8] it was 4 µM (≈ 3.38 µg/mL); in series [9], 4 µM (≈ 3.38 µg/mL). Also, the values for the minimal inhibitory concentration (MIC) in series [10], in series [11] and in series [12] were 8 µM (≈ 6.76 µg/mL), 8 µM (≈ 6.76 µg/mL) and under 1 µM, respectively.

Source of the values: patent US20260355329A1, “PRODRUG LINKER COMPOSITIONS AND METHODS OF USE” (priority 2023, published 2026).
